Bridge positions count the residues as written; N and C are the ends. Square brackets hold non-standard residues; d marks the D form. Peptide text beside a SMILES is read from it. * marks the point of attachment. Phe(4-COOH) = N[C@@H](Cc1ccc(C(=O)O)cc1)C(=O)O; Bip = N[C@@H](Cc1ccc(-c2ccccc2)cc1)C(=O)O; Pro(4R-NH2) = N[C@H]1CN[C@H](C(=O)O)C1; 4Pal = N[C@@H](Cc1ccncc1)C(=O)O; Cha = N[C@@H](CC1CCCCC1)C(=O)O; Cit = NC(=O)NCCC[C@H](N)C(=O)O; Carboxymethyl = O=C(O)C*; Orn = NCCC[C@H](N)C(=O)O; Aun = NCCCCCCCCCCC(=O)O; Dab = NCC[C@H](N)C(=O)O; Dap = NC[C@H](N)C(=O)O; AEEA = NCCOCCOCC(=O)O
Biological target: T1, PD-1/PD-L1 interaction (PE-labeled human PD-L1-Ig binding to Jurkat cell line over-expressing human PD-1) (Homo sapiens, UniProt Q15116)
T1 construct: expressed in transfected cells; host or cells: Jurkat
Assay: Jurkat-PD-1 Cell Binding High-Content Screening Assay (CBA)
Format: cell-based
Conditions: Jurkat cell line over-expressing human PD-1; PE-labeled PD-L1-Ig 20 nM final; read-out: Jurkat hPD1-PDL1 IC50
Method in brief: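 Jurkat-hPD-1 cells, DMEM/10% FCS; cpd 2 h 37° C; PE-PD-L1-Ig 20 nM final, 1 h; 4% PFA fix + Hoechst 33342, 3× dPBS wash; high-content imaging read-out.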

T1 sequence (Q15116 25-288): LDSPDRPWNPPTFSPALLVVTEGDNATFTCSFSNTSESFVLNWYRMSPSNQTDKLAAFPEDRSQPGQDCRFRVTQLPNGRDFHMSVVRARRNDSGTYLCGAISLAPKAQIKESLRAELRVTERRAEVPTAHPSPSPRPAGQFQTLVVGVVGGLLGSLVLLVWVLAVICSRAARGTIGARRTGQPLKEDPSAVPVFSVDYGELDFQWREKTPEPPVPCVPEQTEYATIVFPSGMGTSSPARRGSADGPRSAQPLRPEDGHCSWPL

Compound	IC50 [nM]
CC(C)C[C@H]1NC(=O)[C@H](CCCN)NC(=O)[C@H](C(C)C)NC(=O)[C@H](Cc2ccc(-c3ccccc3)cc2)NC(=O)[C@H](C(C)C)NC(=O)[C@H](Cc2c[nH]c3ccccc23)NC(=O)[C@H](CC(=O)O)NC(=O)[C@H](Cc2ccc(OCC(=O)O)cc2)NC(=O)[C@H](CCCNC(=N)N)NC(=O)CSC[C@@H](C(=O)NCC(=O)NCCOCCOCC(=O)N[C@@H](CCCN)C(=O)NCCCCCCCCCCC(=O)O)NC(=O)[C@H](CO)NC(=O)[C@H](C(C)C)NC(=O)[C@H](CC2CCCCC2)NC(=O)[C@H](CCN)NC1=O [Compound 3230] ({CH2CO}-RY(Carboxymethyl)DWV[Bip]V[Orn][dL][Dab][Cha]VSCG[AEEA][Orn][Aun]-OH; thioether N-14)	8.9
CC(C)C[C@H]1NC(=O)[C@H](CCCN)NC(=O)[C@H](C(C)C)NC(=O)[C@H](Cc2ccc(-c3ccccc3)cc2)NC(=O)[C@H](C(C)C)NC(=O)[C@H](Cc2c[nH]c3ccccc23)NC(=O)[C@H](CC(=O)O)NC(=O)[C@H](Cc2ccc(C(=O)O)cc2)NC(=O)[C@H](CCCNC(=N)N)NC(=O)CSC[C@@H](C(=O)NCC(=O)NCCOCCOCC(=O)N[C@@H](CCCN)C(=O)NCCCCCCCCCCC(=O)O)NC(=O)[C@H](CO)NC(=O)[C@H](C(C)C)NC(=O)[C@H](CC2CCCCC2)NC(=O)[C@H](CCN)NC1=O [Compound 3231] ({CH2CO}-R[Phe(4-COOH)]DWV[Bip]V[Orn][dL][Dab][Cha]VSCG[AEEA][Orn][Aun]-OH; thioether N-14)	7.7
CC(C)C[C@H]1NC(=O)[C@H](CCCN)NC(=O)[C@H](C(C)C)NC(=O)[C@H](Cc2ccc(-c3ccccc3)cc2)NC(=O)[C@H](C(C)C)NC(=O)[C@H](Cc2c[nH]c3ccccc23)NC(=O)[C@H](CC(=O)O)NC(=O)[C@H](Cc2ccncc2)NC(=O)[C@H](Cc2ccc(OCC(=O)O)cc2)NC(=O)CSC[C@@H](C(=O)NCC(=O)NCCOCCOCC(=O)N[C@@H](CCCN)C(=O)NCCCCCCCCCCC(=O)O)NC(=O)[C@H](CN)NC(=O)[C@H](C(C)C)NC(=O)[C@H](CC2CCCCC2)NC(=O)[C@H](CCN)NC1=O [Compound 3232] ({CH2CO}-Y(Carboxymethyl)[4Pal]DWV[Bip]V[Orn][dL][Dab][Cha]V[Dap]CG[AEEA][Orn][Aun]-OH; thioether N-14)	10.1
CC(C)C[C@H]1NC(=O)[C@H](CCCN)NC(=O)[C@H](C(C)C)NC(=O)[C@H](Cc2ccc(-c3ccccc3)cc2)NC(=O)[C@H](C(C)C)NC(=O)[C@H](Cc2c[nH]c3ccccc23)NC(=O)[C@H](CC(=O)O)NC(=O)[C@H](Cc2ccc(OCC(=O)O)cc2)NC(=O)[C@H](Cc2ccncc2)NC(=O)CSC[C@@H](C(=O)NCC(=O)NCCOCCOCC(=O)N[C@@H](CCCN)C(=O)NCCCCCCCCCCC(=O)O)NC(=O)[C@H](CCN)NC(=O)[C@H](C(C)C)NC(=O)[C@H](CC2CCCCC2)NC(=O)[C@@H]2C[C@@H](N)CN2C1=O [Compound 3237] ({CH2CO}-[4Pal]Y(Carboxymethyl)DWV[Bip]V[Orn][dL][Pro(4R-NH2)][Cha]V[Dab]CG[AEEA][Orn][Aun]-OH; thioether N-14)	159
CC(C)C[C@H]1NC(=O)[C@H](CCCN)NC(=O)[C@H](C(C)C)NC(=O)[C@H](Cc2ccc(-c3ccccc3)cc2)NC(=O)[C@H](C(C)C)NC(=O)[C@H](Cc2c[nH]c3ccccc23)NC(=O)[C@H](CC(=O)O)NC(=O)[C@H](Cc2ccc(OCC(=O)O)cc2)NC(=O)[C@H](CCCNC(=N)N)NC(=O)CSC[C@@H](C(=O)NCC(=O)NCCOCCOCC(=O)N[C@@H](CCCN)C(=O)NCCCCCCCCCCC(=O)O)NC(=O)[C@H](CN)NC(=O)[C@H](C(C)C)NC(=O)[C@H](CC2CCCCC2)NC(=O)[C@H](CCN)NC1=O [Compound 3238] ({CH2CO}-RY(Carboxymethyl)DWV[Bip]V[Orn][dL][Dab][Cha]V[Dap]CG[AEEA][Orn][Aun]-OH; thioether N-14)	11.7
CC(C)C[C@H]1NC(=O)[C@H](CCCN)NC(=O)[C@H](C(C)C)NC(=O)[C@H](Cc2ccc(-c3ccccc3)cc2)NC(=O)[C@H](C(C)C)NC(=O)[C@H](Cc2c[nH]c3ccccc23)NC(=O)[C@H](CC(=O)O)NC(=O)[C@H](Cc2ccc(C(=O)O)cc2)NC(=O)[C@H](CCCNC(=N)N)NC(=O)CSC[C@@H](C(=O)NCC(=O)NCCOCCOCC(=O)N[C@@H](CCCN)C(=O)NCCCCCCCCCCC(=O)O)NC(=O)[C@H](CN)NC(=O)[C@H](C(C)C)NC(=O)[C@H](CC2CCCCC2)NC(=O)[C@H](CCN)NC1=O [Compound 3239] ({CH2CO}-R[Phe(4-COOH)]DWV[Bip]V[Orn][dL][Dab][Cha]V[Dap]CG[AEEA][Orn][Aun]-OH; thioether N-14)	11.4

These reach a lower IC50. Values come first.

IC50 [nM]	Compound
5.5	CC(C)C[C@H]1NC(=O)[C@H](CCCN)NC(=O)[C@H](C(C)C)NC(=O)[C@H](Cc2ccc(-c3ccccc3)cc2)NC(=O)[C@H](C(C)C)NC(=O)[C@H](Cc2c[nH]c3ccccc23)NC(=O)[C@H](CC(=O)O)NC(=O)[C@H](Cc2ccc(OCC(=O)O)cc2)NC(=O)[C@H](Cc2ccncc2)NC(=O)CSC[C@@H](C(=O)NCC(=O)NCCOCCOCC(=O)N[C@@H](CCCN)C(=O)NCCCCCCCCCCC(=O)O)NC(=O)[C@H](CN)NC(=O)[C@H](C(C)C)NC(=O)[C@H](CC2CCCCC2)NC(=O)[C@H](CCN)NC1=O [Compound 3233] ({CH2CO}-[4Pal]Y(Carboxymethyl)DWV[Bip]V[Orn][dL][Dab][Cha]V[Dap]CG[AEEA][Orn][Aun]-OH; thioether N-14)
7.3	CC(C)C[C@H]1NC(=O)[C@H](CCCN)NC(=O)[C@H](C(C)C)NC(=O)[C@H](Cc2ccc(-c3ccccc3)cc2)NC(=O)[C@H](C(C)C)NC(=O)[C@H](Cc2c[nH]c3ccccc23)NC(=O)[C@H](CC(=O)O)NC(=O)[C@H](Cc2ccc(C(=O)O)cc2)NC(=O)[C@H](Cc2ccncc2)NC(=O)CSC[C@@H](C(=O)NCC(=O)NCCOCCOCC(=O)N[C@@H](CCCN)C(=O)NCCCCCCCCCCC(=O)O)NC(=O)[C@H](CN)NC(=O)[C@H](C(C)C)NC(=O)[C@H](CC2CCCCC2)NC(=O)[C@H](CCN)NC1=O [Compound 3234] ({CH2CO}-[4Pal][Phe(4-COOH)]DWV[Bip]V[Orn][dL][Dab][Cha]V[Dap]CG[AEEA][Orn][Aun]-OH; thioether N-14)
5.7	CC(C)C[C@H]1NC(=O)[C@H](CCCN)NC(=O)[C@H](C(C)C)NC(=O)[C@H](Cc2ccc(-c3ccccc3)cc2)NC(=O)[C@H](C(C)C)NC(=O)[C@H](Cc2c[nH]c3ccccc23)NC(=O)[C@H](CC(=O)O)NC(=O)[C@H](Cc2ccc(OCC(=O)O)cc2)NC(=O)[C@H](Cc2ccncc2)NC(=O)CSC[C@@H](C(=O)NCC(=O)NCCOCCOCC(=O)N[C@@H](CCCN)C(=O)NCCCCCCCCCCC(=O)O)NC(=O)[C@H](CCCNC(N)=O)NC(=O)[C@H](C(C)C)NC(=O)[C@H](CC2CCCCC2)NC(=O)[C@H](CCN)NC1=O [Compound 3235] ({CH2CO}-[4Pal]Y(Carboxymethyl)DWV[Bip]V[Orn][dL][Dab][Cha]V[Cit]CG[AEEA][Orn][Aun]-OH; thioether N-14)
3.9	CC(C)C[C@H]1NC(=O)[C@H](CCCN)NC(=O)[C@H](C(C)C)NC(=O)[C@H](Cc2ccc(-c3ccccc3)cc2)NC(=O)[C@H](C(C)C)NC(=O)[C@H](Cc2c[nH]c3ccccc23)NC(=O)[C@H](CC(=O)O)NC(=O)[C@H](Cc2ccc(OCC(=O)O)cc2)NC(=O)[C@H](Cc2ccncc2)NC(=O)CSC[C@@H](C(=O)NCC(=O)NCCOCCOCC(=O)N[C@@H](CCCN)C(=O)NCCCCCCCCCCC(=O)O)NC(=O)[C@H](CCN)NC(=O)[C@H](C(C)C)NC(=O)[C@H](CC2CCCCC2)NC(=O)[C@H](CCN)NC1=O [Compound 3236] ({CH2CO}-[4Pal]Y(Carboxymethyl)DWV[Bip]V[Orn][dL][Dab][Cha]V[Dab]CG[AEEA][Orn][Aun]-OH; thioether N-14)
